The text below walks through data of patent publication US11136311B2, “Heteroaromatic derivatives as NIK inhibitors” (Janssen Pharmaceutica NV, priority 2016, dated 2021).

One assay deals with KMS12-BM cells. The assay is described as follows: Antiproliferative activity on KMS12-BM (NIK WT) multiple myeloma cells (CellTiter-Glo). The format is cell-based, human. The following applies: Homo sapiens, KMS-12-BM, 96 h, KMS12-BM (NIK WT) cells, 96 hr; averaged values; read-out: KMS-12 Proliferation inhibition (IC50 (nM)). In outline: (§1)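 Suspension myeloma cells in RPMI 1640 with 10% FCS, plated at 15000 (JJN-3) or 20000 (KMS12-BM) cells/well, were treated 96 hr with 9-point 1:3 compound dilutions at 0.3% DMSO. CellTiter-Glo luminescence, minus a time-zero blank, was expressed as % of untreated control growth.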
(ATP-based viability assays read luminescence as a measure of living cells.)

The next assay deals with JJN-3 cells. Put plainly: Antiproliferative activity on JJN-3 (NIK translocated) multiple myeloma cells (CellTiter-Glo). The format is cell-based, human. The following applies: Homo sapiens, JJN-3, 96 h, JJN-3 (NIK translocated) cells, 96 hr; averaged values; read-out: JJN-3 Proliferation inhibition (IC50 (nM)). In outline: as §1
The target of assay [1] is recombinant human NF-kappaB-inducing kinase (NIK/MAP3K14) (Homo sapiens (Human), UniProt Q99558). The assay is described as follows: Inhibition of auto-phosphorylation of recombinant human NIK/MAP3K14 activity (AlphaScreen). The format is biochemical. Particulars: averaged values over all measurements on all batches. In short, it runs like this: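 GST-tagged NIK at 0.2 nM autophosphorylated for 1 h at 25° C with 25 microM ATP in Tris pH 7.5, MgCl2, 1% DMSO. Phospho-IKK Ser176/180 antibody with AlphaScreen beads detected product. IC50 came from sigmoidal fits of blank-corrected % inhibition.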
recombinant human NF-kappaB-inducing kinase (NIK/MAP3K14), sequence (Q99558 whole entry): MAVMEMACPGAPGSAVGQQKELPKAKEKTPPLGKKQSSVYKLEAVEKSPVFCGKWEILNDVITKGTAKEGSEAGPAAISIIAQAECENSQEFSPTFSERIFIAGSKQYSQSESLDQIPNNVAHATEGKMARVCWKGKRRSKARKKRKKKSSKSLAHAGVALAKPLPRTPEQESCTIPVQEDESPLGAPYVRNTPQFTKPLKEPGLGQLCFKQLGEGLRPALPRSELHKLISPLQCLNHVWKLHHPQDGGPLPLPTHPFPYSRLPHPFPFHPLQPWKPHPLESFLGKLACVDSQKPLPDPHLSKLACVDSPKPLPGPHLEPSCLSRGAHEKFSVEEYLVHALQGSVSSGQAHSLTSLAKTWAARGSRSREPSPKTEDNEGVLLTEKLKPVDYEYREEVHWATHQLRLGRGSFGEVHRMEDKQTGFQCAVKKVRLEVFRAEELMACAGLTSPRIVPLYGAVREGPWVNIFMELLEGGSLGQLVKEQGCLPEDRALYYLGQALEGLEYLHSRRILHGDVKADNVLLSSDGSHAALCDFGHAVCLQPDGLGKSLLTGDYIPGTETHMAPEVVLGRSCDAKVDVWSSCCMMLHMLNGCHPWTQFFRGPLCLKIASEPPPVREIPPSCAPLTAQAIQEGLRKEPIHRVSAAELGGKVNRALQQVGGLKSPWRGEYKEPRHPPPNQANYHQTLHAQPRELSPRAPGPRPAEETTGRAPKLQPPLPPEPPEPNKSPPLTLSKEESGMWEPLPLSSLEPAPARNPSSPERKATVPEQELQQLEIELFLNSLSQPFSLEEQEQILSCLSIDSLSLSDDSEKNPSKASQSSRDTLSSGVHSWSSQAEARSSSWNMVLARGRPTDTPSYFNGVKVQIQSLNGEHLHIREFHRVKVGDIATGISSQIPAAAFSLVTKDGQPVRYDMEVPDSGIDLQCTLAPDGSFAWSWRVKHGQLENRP

The subject of assay [2] is P-IKKα levels in L363 cells. The assay is described as follows: Effect of compounds on P-IKKα levels in L363 (NIK translocated multiple myeloma) cells. In kind it is cell-based, human. Particulars: Homo sapiens, L-363, L363 cells; averaged values; read-out: Inhibition of pIKKα_L-363 (IC50 (nM)). As to the method:
Effect of compounds on P-IKKα levels in L363 (NIK translocated multiple myeloma) cells
All compounds tested were dissolved in DMSO and further dilutions were made in culture medium. Final DMSO concentration was 1% (v/v) in cell assays. The human L363 cells (ATCC) were cultured in RPMI 1640 medium supplemented with GlutaMax and 10% fetal calf serum (PAA). Cells were routinely maintained at densities of 0.2×10^6 cells per ml-1×10^6 cells per ml at 37° C. in a humidified 5% CO2 atmosphere. Cells were passaged twice a week splitting back to obtain the low density. Cells were seeded in 96 well plates (Nunc 167008) at 2×10^6 per ml media in a volume of 75 μl per well plus 25 μl 1 μg/ml recombinant human B-cell activating factor (BAFF/BLyS/TNFSF13B). Seeded cells were incubated at 37° C. in a humidified 5% CO2 atmosphere for 24 hr. Drugs and/or solvents were added (20 μl) to a final volume of 120 μl. Following 2 hr treatment plates were removed from the incubator and cell lysis was achieved by the addition of 30 μl 5× lysis buffer followed by shaking on a plate shaker at 4° C. for 10 min. At the end of this incubation lysed cells were centrifuged at 800×g for 20 min at 4° C. and the lysate was assessed for P-IKKα levels by sandwich immuno-assay carried out in anti-rabbit antibody coated Mesoscale plates. Within an experiment, the results for each treatment were the mean of 2 replicate wells. For initial screening purposes, compounds were tested using an 8 point dilution curve (serial 1:3 dilutions). For each experiment, controls (containing MG132 and BAFF but no test drug) and a blank incubation (containing MG132 and BAFF and 10 μM ADS125117, a test concentration known to give full inhibition) were run in parallel. The blank incubation value was subtracted from all control and sample values. To determine the IC50 a sigmoidal curve was fitted to the plot of % inhibition of control P-IKKα levels versus Log10 compound concentration.

`CC(C)CCc1nn(C)cc1Nc1nccc(-c2cc(C#N)c3c(c2)[C@@](C)(CO)CN3)n1` [Compound 100]: the IC50 in the assay on KMS12-BM cells is more than 10000 nM; in the assay with JJN-3 cells, 54 nM; in assay [1] it was 2.1 nM; in assay [2], approximately 15 nM.
The matching figures for `CC(C)CCc1nn(CCN(C)C)cc1Nc1nccc(-c2cc(C#N)c3c(c2)[C@@](C)(CO)CN3)n1` [Compound 101]: 5250 nM, 1510 nM, 6 nM and 234 nM.
In the same order, the values of `CNC(=O)c1cc(Nc2nccc(-c3cc(C#N)c4c(c3)[C@@](C)(CO)CN4)n2)nn1C(C)C` [Compound 103] are 3020 nM, 71 nM, 2.6 nM and 4 nM.
In the same order, the values of `COCCCn1ncc(Nc2nccc(-c3cc(C#N)c4c(c3)[C@@](C)(CO)CN4)n2)c1CCC(C)C` [Compound 104] are more than 10000 nM, 117 nM, 3.4 nM and 15 nM.
For the compound `COCCCn1cc(Nc2nccc(-c3cc(C#N)c4c(c3)[C@@](C)(CO)CN4)n2)c(CCC(C)C)n1` [Compound 105], the IC50 in the assay on KMS12-BM cells is more than 10000 nM; in the assay on JJN-3 cells, 447 nM; in assay [1], 5.5 nM; in assay [2] it was 20 nM.
The matching figures for `CC(C)Cn1nc(Cl)cc1Nc1nccc(-c2cc(C#N)c3c(c2)[C@@](C)(CO)CN3)n1` [Compound 107]: 1350 nM, 55 nM, 3.8 nM and 9 nM.
In the same order, the values of `Cc1cc(Nc2nccc(-c3cc(C#N)c4c(c3)[C@@](C)(CO)CN4)n2)n(CCC(C)(C)O)n1` [Compound 108] are approximately 3160 nM, approximately 724 nM, 4.1 nM and 14 nM.
In the same order, the values of `Cc1cc(Nc2nccc(-c3cc(C#N)c4c(c3)[C@@](C)(CO)CN4)n2)nn1CCC(C)(C)O` [Compound 109] are 468 nM, 50 nM, 3.6 nM and 11 nM.
In the case of `CC(C)CCn1nc(CO)cc1Nc1nccc(-c2cc(C#N)c3c(c2)[C@@](C)(CO)CN3)n1` [Compound 110], the IC50 in the assay on KMS12-BM cells amounted to 2040 nM; in the assay on JJN-3 cells it was 138 nM; in assay [1], 3 nM; in assay [2] it was 4 nM.
The matching figures for `Cc1cc(Nc2nccc(-c3cc(C#N)c4c(c3)[C@@](C)(CO)CN4)n2)n(CC2(C)COC2)n1` [Compound 111]: 5130 nM, 355 nM, 9.3 nM and approximately 331 nM.
As for `COCCCn1nc(Cl)cc1Nc1nccc(-c2cc(C#N)c3c(c2)[C@@](C)(CO)CN3)n1` [Compound 112], the IC50 in the assay with KMS12-BM cells is 8910 nM; with JJN-3 cells it was 69 nM; in assay [1] it was 2.9 nM; in assay [2] it was 13 nM.
In the same order, the values of `C[C@]1(CO)CNc2c(C#N)cc(-c3ccnc(Nc4cc(Cl)nn4C[C@@H]4CCCO4)n3)cc21` [Compound 113] are 3020 nM, 69 nM, 6.2 nM and 42 nM.
Take `C[C@]1(CO)CNc2c(C#N)cc(-c3ccnc(Nc4cc(Cl)nn4C[C@H]4CCCO4)n3)cc21` [Compound 114]: the IC50 in the assay with KMS12-BM cells was determined as 1070 nM; with JJN-3 cells, 151 nM; in assay [1], 6 nM; in assay [2], 30 nM.
In the same order, the values of `C[C@]1(CO)CNc2c(C#N)cc(-c3ccnc(Nc4cc(Cl)nn4CCC4CC4)n3)cc21` [Compound 115] are 4270 nM, 62 nM, 4.6 nM and 10 nM.
For the compound `CC(C)CCc1c(Nc2nccc(-c3cc(C#N)c4c(c3)[C@@](C)(CO)CN4)n2)cnn1Cc1nccn1C` [Compound 117], the IC50 in the assay on KMS12-BM cells was more than 10000 nM; in the assay with JJN-3 cells, 269 nM; in assay [1], 6 nM; in assay [2], 11 nM.
In the same order, the values of `CN(C(=O)Cn1nc(Cl)cc1Nc1nccc(-c2cc(C#N)c3c(c2)[C@@](C)(CO)CN3)n1)C1CC1` [Compound 118] are more than 10000 nM, 447 nM, 4 nM and 33 nM.
In the case of `CC(C)Cn1nc(P(C)(C)=O)cc1Nc1nccc(-c2cc(C#N)c3c(c2)[C@@](C)(CO)CN3)n1` [Compound 119], the IC50 in the assay with KMS12-BM cells was more than 10000 nM; in the assay on JJN-3 cells, 3160 nM; in assay [1] it was 9.6 nM; in assay [2], 43 nM.
The matching figures for `CC(C)CCc1c(Nc2nccc(-c3cc(C#N)c4c(c3)[C@@](C)(CO)CN4)n2)cnn1Cc1cncn1C` [Compound 120]: 5010 nM, 126 nM, approximately 29 nM and 3 nM.
In the case of `CC(C)CCc1c(Nc2nccc(-c3cc(C#N)c4c(c3)[C@@](C)(CO)CN4)n2)cnn1C[C@@H]1COCCO1` [Compound 121], the IC50 was more than 10000 nM in the assay with KMS12-BM cells, 282 nM with JJN-3 cells, 5 nM in assay [1] and 25 nM in assay [2].
In the same order, the values of `Cc1nn(C2CCN(C)CC2)cc1Nc1nccc(-c2cc(C#N)c3c(c2)[C@@](C)(CO)CN3)n1` [Compound 122] are approximately 1660 nM, 479 nM, 6.8 nM and 1020 nM.
The matching figures for `Cc1c(Nc2nccc(-c3cc(C#N)c4c(c3)[C@@](C)(CO)CN4)n2)cnn1C1CCN(C)CC1` [Compound 123]: approximately 447 nM, 195 nM, 1.6 nM and 20 nM.
The matching figures for `CN1CCC(Cn2nc(Cl)cc2Nc2nccc(-c3cc(C#N)c4c(c3)[C@@](C)(CO)CN4)n2)CC1` [Compound 124]: 832 nM, 49 nM, 6.8 nM and 219 nM.
`CC(C)CCc1c(Nc2nccc(-c3cc(C#N)c4c(c3)[C@@](C)(CO)CN4)n2)cnn1CCN1CCOCC1` [Compound 125]: the IC50 with KMS12-BM cells was more than 10000 nM; in the assay with JJN-3 cells it was 120 nM; in assay [1], 3.5 nM; in assay [2] it was 1 nM.
The matching figures for `C[C@]1(CO)CNc2c(C#N)cc(-c3ccnc(Nc4cc(Cl)nn4C[C@@H]4COCCO4)n3)cc21` [Compound 126]: more than 10000 nM, 468 nM, 4.8 nM and 170 nM.
In the same order, the values of `CC(C)CCc1c(Nc2nccc(-c3cc(C#N)c4c(c3)[C@@](C)(CO)CN4)n2)cnn1CCO` [Compound 127] are more than 10000 nM, 617 nM, 2 nM and 25 nM.
The matching figures for `C[C@]1(CO)CNc2c(C#N)cc(-c3ccnc(Nc4cc(C#N)nn4CCC4CC4)n3)cc21` [Compound 128]: 1900 nM, 417 nM, 3.7 nM and approximately 41 nM.
Turning to `C[C@]1(CO)CNc2c(C#N)cc(-c3ccnc(Nc4cc(Cl)nn4C[C@@H]4CCOC4)n3)cc21` [Compound 129], the IC50 in the assay on KMS12-BM cells came to 2040 nM; in the assay with JJN-3 cells, 251 nM; in assay [1], 3.8 nM; in assay [2] it was 28 nM.
In the same order, the values of `CC(C)CCc1nn(Cc2cncn2C)cc1Nc1nccc(-c2cc(C#N)c3c(c2)[C@@](C)(CO)CN3)n1` [Compound 130] are more than 10000 nM, 1000 nM, 6 nM and 115 nM.
In the same order, the values of `Cc1cc(Nc2nccc(-c3cc(C#N)c4c(c3)[C@@](C)(CO)CN4)n2)n(CC2(F)CCN(C)CC2)n1` [Compound 131] are more than 10000 nM, 224 nM, 5.9 nM and 166 nM.
